Series [1] can be described thus: Hydrophobicity investigation of free payloads by UPLC (hydrophobicity model). The following applies: for Retention Time (min) seco form / Retention Time (min) spiro form: single runs 1-3 (triplicate), 0.1% TFA water/acetonitrile gradient; for Retention Time (min) seco form, Average: Average of runs, D only in seco form, the others observable as single species. It is filed as physicochemical. Here is the method:
Both mobile phases were filtered through 0.22 μm filters and degassed by sonication under argon. Caffeine (Merck, UPLC grade) was employed a standard. Blank solvent samples (i.e., DMSO) were used during sample runs to confirm lack of carryover between injections and to monitor column performance.
UPLC-MS analysis was performed on a Waters Acquity H-Class Ultra-Performance Liquid Chromatography (UPLC) System equipped with an Acquity UPLC BEH, […] 50×2.10 mm (Waters, UK) column and a photodiode array detector […], using Waters MassLynx software. The gradient system used for LC analysis consisted of 0.1% trifluoroacetic acid (TFA) in water as Solvent A, and 0.1% trifluoroacetic acid (TFA) in acetonitrile as Solvent B. TFA was purchased from Merck (UK), and diluted to the required concentration with UPLC grade water and acetonitrile for Solvent A and Solvent B, respectively. TFA was added to ensure acidic conditions throughout the analysis. A flow rate of 0.4 mL/min was used, and the detection wavelength was 254 nm. Mass spectrometry data were collected using a Waters SQ Detector 2 coupled to a Waters Acquity H Class UPLC and a Photo Diode Array Detector (ACQ-PDA). The Waters SQ Detector 2 parameters were set to: Capillary (kV), 3.00; Cone (V), 30; De-solvation Temperature (° C.), 600; Cone flow rate (L/h), 50; De-solvation flow rate (L/h), 600.
Gradient method used: from 95% A/5% B to 20% B over 5 min. Then from 20% B to 60% B over 35 min, followed by from 60% B to 85% B over 10 min. It was further changed from 85% B to 90% B over 5 min and kept for a further 5 min. Finally, from 90% B to 95% B over 2.5 min, and then to 20% B over 2.5 min. 10 μL was split via a zero-dead volume T-piece which passed into the mass spectrometer.
Compounds were provided in powder form and were dissolved in DMSO to achieve 5 mM stock solution. This solution was then diluted to 500 μM with 50% acetonitrile/50% water.
A number of commercially available ADC payloads and internal reference compounds were also incorporated into the analysis, and their structures are presented in Table 3.

The subject of a further series is RAJI (Lymphoma). The series is described as follows: MTT in vitro cytotoxicity, 72 hour incubation. The following applies: Homo sapiens, MTT assay, RAJI cells. In kind it is cell-based. How it is done: (§1) The in vitro cytotoxicity of a selection of compounds was determined in a panel of cell lines using the standard MTT assay for a 72 hour incubation period (Table 1).
(§2) Tumor cell lines were maintained in RPMI1640 medium supplemented with 10% heat-inactivated fetal bovine serum, 2 mM L-glutamine and 1 mM sodium pyruvate. 1800 cells per well were seeded in a volume of 180 μl in a 96-well flat bottom polystyrene plate. The cells were allowed to adhere overnight at 37° C. in a CO2 incubator. Ligands were initially formulated in DMSO, and stocks stored at −80° C. They were then further formulated at lox concentration in RPMI1640 medium. 20 μl of diluted samples were added into each treatment well. On each plate, blank wells with no cells, and untreated wells containing cells, were included. Plates were then cultured at 37° C. in a CO2 incubator for 72 hrs. Cytotoxicity was evaluated using a tetrazolium salt-based assay, the MTT assay. After 72 hours, the supernatant was removed from each well and 200 μl of a sterile filtered 500 μg/ml MTT solution in water added to each well. The plates were then incubated at 37° C. in a CO2 incubator for 4 hrs. The supernatant was then removed and the formazan crystals formed solubilized by adding 150 μl of DMSO to each well. The plate was then read on a plate reader at 540 nm, and percentage cell survival calculated as follows: ((mean absorbance treated wells at concentration×−mean absorbance blank wells)÷(mean absorbance untreated wells at concentration×−mean absorbance blank wells))×100. Data were plotted as concentration in nM vs. % cell survival in Microsoft Excel, and IC50 values (concentration where cell survival is reduced by a half) were determined from the graph.
A general note: Formazan colour is commonly taken as a measure of viable cells.

For another series, the system named is JVM2 (Lymphoma). The series can be described thus: MTT in vitro cytotoxicity, 72 hour incubation. Particulars: Homo sapiens, JVM-2, MTT assay, JVM2 cells. It is filed as cell-based. How it is done: as §1, §2
In the next series the test system is Jurkat (Leukaemia). The series can be described thus: MTT in vitro cytotoxicity, 72 hour incubation. In kind it is cell-based. The following applies: Homo sapiens, MTT assay, Jurkat cells. Here is the method: as §1, §2

Where “and” joins values, the source holds several entries; their conditions need not be identical. Equal entries are not always repeated.

Turning to `COc1cc2c(cc1OCCCCCC(=O)N1C[C@@H](CCl)c3c1cc(O)c1ccccc31)N=C[C@@H]1CCCCN1C2=O` [A, reference compound], in series [1], the “Retention Time (min) seco form” value was 22.55 min and 22.56 min; the “Retention Time (min) spiro form” value is 14.85 min and 14.83 min and 14.84 min.
As to `COc1cc2c(cc1OCCCCCOc1cc3c(cc1OC)C(=O)N1C=C(C)C[C@H]1C=N3)C=C[C@@H]1CC(C)=CN1C2=O` [SG3199, reference compound], the “Retention Time (min) seco form, Average” value in series [1] was 12.02 min.
Turning to `COc1cc2c(cc1OCc1cccc(CC(=O)N3C[C@@H](CCl)c4c3cc(O)c3ccccc43)c1)N=C[C@@H]1CCCCN1C2=O` [B, reference compound], in series [1], the “Retention Time (min) seco form” value is 23.64 min and 23.65 min; the “Retention Time (min) spiro form” value is 16.10 min and 16.12 min and 16.09 min.
On to `COc1cc2c(cc1OCc1cccc(CC(=O)N3C[C@@H](CCl)c4c3cc(OC(=O)N3CCN(C)CC3)c3ccccc43)c1)N=C[C@@H]1CCCCN1C2=O` [D, reference compound], for which, in series [1], the “Retention Time (min) seco form, Average” value stood at 17.03 min. Further, the “enhanced hydrophilicity (retention time) compared to the unsubstituted compound (B)” value in series [1] (carbamate pro-drug D versus B) is “approximately 10 mins”.
On to `CCc1c2c(nc3ccc(O)cc13)-c1cc3c(c(=O)n1C2)COC(=O)[C@]3(O)CC` [SN38, reference compound], for which, in series [1], the “Retention Time (min) seco form, Average” value was found to be 7.13 min.
Broadly, the IC50 is the concentration that gives 50% inhibition. A high value points to a need for much substance. Turning to `CNS(=O)(=O)c1ccc(C2=CCN3C(=O)c4cc(OC)c(OC[C@H](O)CC(=O)N5C[C@@H](CCl)c6c5cc(O)c5ccccc65)cc4N=C[C@@H]3C2)cc1` [Compound 92, 4-((S)-3-((R)-4-((S)-1-(Chloromethyl)-5-hydroxy-1,2-dihydro-3H-benzo[e]indol-3-yl)-2-hydroxy-4-oxobutoxy)-2-methoxy-12-oxo-6a,7,10,12-tetrahydrobenzo[e]pyrido[1,2-a][1,4]diazepin-8-yl)-N-methylbenzenesulfonamide], the figures for the IC50 with RAJI (Lymphoma), in the series on JVM2 (Lymphoma) and with Jurkat (Leukaemia) were 0.41 nM, 0.12 nM and 0.55 nM, respectively. Moreover, the “Retention Time (min) seco form” value in series [1] is 18.82 min and 18.84 min. For the same compound, the “Retention Time (min) spiro form” value in series [1] is 12.16 min and 12.18 min.
As for `COc1cc2c(cc1OCCCCCC(=O)N1C[C@@H](CCl)c3c1cc(O)c1ccccc31)N=C[C@@H]1CCCN1C2=O` [C, reference compound], in series [1], the “Retention Time (min) seco form” value was 20.16 min and 20.15 min; the “Retention Time (min) spiro form” value is 12.49 min and 12.48 min and 12.45 min.
As for `CC[C@H](C)C[C@H](OC)[C@@H](C(=O)N1CCC[C@H]1[C@@H](CC(=O)N[C@H](C)[C@@H](O)c1ccccc1)OC)N(C)C(=O)[C@@H](NC(=O)[C@@H](NC)C(C)C)C(C)C` [MMAE, reference compound], in series [1], the “Retention Time (min) seco form, Average” value is on record as 12.04 min.
On to `COc1cc2cc(c1Cl)N(C)C(=O)C[C@](C)(OC(=O)[C@@H](C)N(C)C(=O)CCSC)[C@]1(C)O[C@H]1[C@H](C)[C@@H]1C[C@@](O)(NC(=O)O1)[C@H](OC)/C=C/C=C(\C)C2` [DM1, reference compound], for which the “Retention Time (min) seco form, Average” value in series [1] was determined as 21.24 min.
In the case of `COc1cc2c(cc1OCCOCCC(=O)N1C[C@@H](CCl)c3c1cc(O)c1ccccc31)N=C[C@@H]1CC(c3ccsc3)=CCN1C2=O` [Compound 104, (S)-3-(2-(3-((S)-1-(Chloromethyl)-5-hydroxy-1,2-dihydro-3H-benzo[e]indol-3-yl)-3-oxopropoxy)ethoxy)-2-methoxy-8-(thiophen-3-yl)-7,10-dihydrobenzo[e]pyrido[1,2-a][1,4]diazepin-12(6aH)-one], the IC50 worked out at 0.0025 nM in the series with RAJI (Lymphoma), 0.0018 nM in the series on JVM2 (Lymphoma) and 0.0095 nM in the series with Jurkat (Leukaemia). Moreover, the “Retention Time (min) seco form” value in series [1] is 24.10 min and 24.09 min. In addition, the “Retention Time (min) spiro form” value in series [1] was 16.90 min and 16.93 min and 16.91 min.
The compound `COc1cc2c(cc1OCCCC(=O)N1C[C@@H](CCl)c3c1cc(O)c1ccccc31)N=C[C@@H]1CC(c3ccsc3)=CCN1C2=O` [Compound 100, (S)-3-(4-((S)-1-(Chloromethyl)-5-hydroxy-1,2-dihydro-3H-benzo[e]indol-3-yl)-4-oxobutoxy)-2-methoxy-8-(thiophen-3-yl)-7,10-dihydrobenzo[e]pyrido[1,2-a][1,4]diazepin-12(6aH)-one] yielded an IC50 with JVM2 (Lymphoma) of 0.001 nM. Moreover, in series [1], the “Retention Time (min) seco form” value was 25.24 min and 25.23 min; the “Retention Time (min) spiro form” value was 17.94 min and 17.89 min and 17.93 min.
Consider `CNS(=O)(=O)c1ccc(C2=CCN3C(=O)c4cc(OC)c(OCCOCCC(=O)N5C[C@@H](CCl)c6c5cc(O)c5ccccc65)cc4N=C[C@@H]3C2)cc1` [Compound 76, 4-((S)-3-(2-(3-((S)-1-(Chloromethyl)-5-hydroxy-1,2-dihydro-3H-benzo[e]indol-3-yl)-3-oxopropoxy)ethoxy)-2-methoxy-12-oxo-6a,7,10,12-tetrahydrobenzo[e]pyrido[1,2-a][1,4]diazepin-8-yl)-N-methylbenzenesulfonamide], for which the IC50 was 0.0172 nM in the series on RAJI (Lymphoma), 0.0138 nM in the series on JVM2 (Lymphoma) and 0.0095 nM in the series on Jurkat (Leukaemia). The “Retention Time (min) seco form” value in series [1] came out at 20.14 min. In addition, the “Retention Time (min) spiro form” value in series [1] was 13.29 min and 13.28 min.
For `COc1cc2c(cc1OCCCCCC(=O)N1C[C@@H](CCl)c3c1cc(O)c1ccccc31)N=C[C@@H]1CC(c3ccsc3)=CCN1C2=O` [Compound 96, (S)-3-((6-((S)-1-(Chloromethyl)-5-hydroxy-1,2-dihydro-3H-benzo[e]indol-3-yl)-6-oxohexyl)oxy)-2-methoxy-8-(thiophen-3-yl)-7,10-dihydrobenzo[e]pyrido[1,2-a][1,4]diazepin-12(6aH)-one], in the series on RAJI (Lymphoma), the IC50 stood at 0.0014 nM. Further, in series [1], the “Retention Time (min) seco form” value was 28.04 min and 28.08 min and 28.06 min; the “Retention Time (min) spiro form” value was 21.00 min and 21.02 min.
Regarding `COc1cc2c(cc1OCc1cc(N)cc(COc3cc4c(cc3OC)C(=O)N3c5ccccc5C[C@H]3CN4)c1)N=C[C@@H]1Cc3ccccc3N1C2=O` [DGN549, reference compound], the “Retention Time (min) seco form, Average” value in series [1] worked out at 16.60 min.
In the case of `COc1cc2c(cc1OC[C@@H](O)CC(=O)N1C[C@@H](CCl)c3c1cc(O)c1ccccc31)N=C[C@@H]1CC(c3ccsc3)=CCN1C2=O` [Compound 108, (S)-3-((S)-4-((S)-1-(Chloromethyl)-5-hydroxy-1,2-dihydro-3H-benzo[e]indol-3-yl)-2-hydroxy-4-oxobutoxy)-2-methoxy-8-(thiophen-3-yl)-7,10-dihydrobenzo[e]pyrido[1,2-a][1,4]diazepin-12(6aH)-one], the IC50 in the series on RAJI (Lymphoma) worked out at 0.01 nM; with JVM2 (Lymphoma) it was 0.0047 nM; with Jurkat (Leukaemia) it was 0.014 nM. In series [1], the “Retention Time (min) seco form” value was 22.54 min and 22.53 min. Also, the “Retention Time (min) spiro form” value in series [1] is 15.71 min and 15.69 min and 15.70 min.
For `COc1ccc(C2=CN3C(=O)c4cc(OC)c(OCCCOc5cc6c(cc5OC)C(=O)N5C=C(c7ccc(N)cc7)C[C@H]5C=N6)cc4N=C[C@@H]3C2)cc1` [SGD1882, reference compound], the “Retention Time (min) seco form, Average” value in series [1] is 12.55 min.

The record behind these values is patent US20220098191A1 (priority 2019, published 2022).
